In ChEMBL document CHEMBL6115028, “An Amazing 30-Year Journey around the DABO Family: A Medicinal Chemistry Lesson on a Versatile Class of Non-nucleoside HIV-1 Reverse Transcriptase Inhibitors” (J Med Chem, 2025):

Experiments:
[1] = system: Human immunodeficiency virus 1; experiment: Antiviral activity against HIV-1 NL4-3 infected in human MT2 cells assessed as reduction in viral replication assessed as inhibition of viral growth incubated for 72 hrs by ELISA; format: functional, organism-based; settings: Human immunodeficiency virus 1, NL4-3, MT2, 72 h
[2] = Selectivity index, ratio of CC50 for human MT4 cells to EC50 for antiviral activity against HIV1 infected in human MT4 cells; format: toxicity, cell-based; settings: read-out: Ratio CC50/EC50
[3] = system: Human immunodeficiency virus 1; experiment: Antiviral activity against HIV1 IIIB infected in human MT4 cells assessed as reduction in virus-induced cytopathic effect incubated for 4 days by MTT assay; format: functional, organism-based; settings: Human immunodeficiency virus 1, IIIB, MT4, 96 h
C8166 = experiment: Cytotoxicity against human C8166 cells assessed as reduction in cell viability; format: functional
[4] = Cytotoxicity against african green monkey Vero cells assessed as reduction in cell viability measured after 72 hrs by MTT assay; format: toxicity, cell-based; settings: chlorocebus sabaeus
[5] = Selectivity index, ratio of CC50 for cytotoxicity against human MT2 cells to EC50 for antiviral activity against HIV-1 IIIB infected in human MT2 cells; format: toxicity, cell-based; settings: read-out: Ratio CC50/EC50
[6] = system: Human immunodeficiency virus 1; experiment: Antiviral activity against HIV-1 IIIB infected in human C8166 cells assessed as reduction in virus -induced cytopathic effect measured after 48 hrs by CellTiter-Glo Luminescent cell viability assay; format: functional, organism-based; settings: Human immunodeficiency virus 1, IIIB, C8166, 48 h
[7] = system: Human immunodeficiency virus 1; experiment: Antiviral activity against HIV-1 IIIB infected in human C8166 cells; format: functional, organism-based; settings: Human immunodeficiency virus 1, IIIB
[8] = system: Human immunodeficiency virus 2; experiment: Antiviral activity against HIV-2 ROD infected in human MT4 cells assessed as virus-induced cytopathic effect incubated for 5 days by MTT assay; format: functional, organism-based; settings: Human immunodeficiency virus 2, ROD, MT4, 120 h
MT4 [9] = experiment: Cytotoxicity against human MT4 cells assessed as reduction in cell growth incubated for 3 days by CellTiter-Glo luminescent assay; format: functional; settings: MT4, 72 h, time 3 day
[10] = system: Human immunodeficiency virus 1; experiment: Antiviral activity against wild type HIV-1 NL4-3 infected in human MT4 cells assessed as reduction in viral replication measured for 72 hrs by ELISA analysis; format: functional, organism-based; settings: Human immunodeficiency virus 1, NL4-3, MT4, 72 h
[11] = system: Human immunodeficiency virus 1; experiment: Antiviral activity against HIV-1 NL4-3 harboring infected K103N mutant infected in human MT4 cells assessed as reduction in viral replication; format: functional, organism-based; settings: Human immunodeficiency virus 1, NL4-3, MT4
[12] = system: Human immunodeficiency virus 1; experiment: Antiviral activity against wild-type HIV-1 IIIB infected in human MT4 cells assessed as reduction in virus-induced cytopathic effect incubated for 5 days by MTT assay; format: functional, organism-based; settings: Human immunodeficiency virus 1, IIIB, MT4, 120 h
MT4 [13] = experiment: Cytotoxicity against human MT4 cells assessed as reduction in cell growth after 5 days by MTT assay; format: functional; settings: MT4, 120 h, time 5 day
MT4 [14] = experiment: Cytotoxicity against human MT4 cells; format: functional
[15] = system: Human immunodeficiency virus 1; experiment: Antiviral activity against HIV-1 NL4-3 harboring infected Y181C mutant infected in human MT4 cells assessed as reduction in viral replication; format: functional, organism-based; settings: Human immunodeficiency virus 1, NL4-3, MT4
[16] = system: Human immunodeficiency virus 1; experiment: Antiviral activity against wild type HIV-1 NL4-3 infected in human MT4 cells assessed as reduction in viral replication; format: functional, organism-based; settings: Human immunodeficiency virus 1, NL4-3, MT4; read-out: EC50

Question: With `CCC(C)Sc1nc(O)c(C)c(Cc2ccccc2)n1` (configuration not stated) as the compound, how does the EC50 [1] read?
Answer: 200 nM

Question: Which selectivity ratio [2] does the source give for `Cc1c(O)nc(SC2CCCCC2)nc1Cc1ccccc1` here?
Answer: > 530

Question: What about the EC50 [3] of the same compound?
Answer: 600 nM

Question: For `CCC(C)Sc1nc(O)cc(Cc2ccccc2)n1` (configuration not stated), which EC50 [1] is on record?
Answer: 80 nM

Question: For `CCC(C)Sc1nc(O)cc(Cc2cccc(C)c2)n1` (configuration not stated), which selectivity ratio [2] is on record?
Answer: > 578

Question: What about the EC50 [3] of the same compound?
Answer: 600 nM

Question: With `Cc1c(O)nc(SC2CCCC2)nc1Cc1ccccc1` as the compound, how does the selectivity ratio [2] read?
Answer: > 555

Question: And the EC50 [3]?
Answer: 800 nM

Question: With `Oc1cc(Cc2ccccc2)nc(SC2CCCCC2)n1` as the compound, how does the selectivity ratio [2] read?
Answer: > 412

Question: What about the EC50 [3] of the same compound?
Answer: 800 nM

Question: Which CC50 (C8166) does the source give for `CCC(C)Sc1nc(O)cc(Cc2c(Cl)cccc2Cl)n1` (configuration not stated) here?
Answer: > 200000 nM

Question: And the CC50 at 72 h [4]?
Answer: > 200000 nM

Question: What about the selectivity ratio [5] of the same compound?
Answer: > 1430

Question: What about the EC50 [6] of the same compound?
Answer: 140 nM

Question: Which CC50 (C8166) does the source give for `CCC(C)Sc1nc(O)c(C)c(Cc2c(Cl)cccc2Cl)n1` (configuration not stated) here?
Answer: > 200000 nM

Question: What about the CC50 at 72 h [4] of the same compound?
Answer: > 200000 nM

Question: What about the selectivity ratio [5] of the same compound?
Answer: > 4000

Question: What about the EC50 [6] of the same compound?
Answer: 50 nM

Question: For `CCc1c(Cc2ccccc2)nc(SCC(=O)c2ccc(OC)cc2)[nH]c1=O`, which EC50 [7] is on record?
Answer: 45 nM

Question: What about the EC50 [8] of the same compound?
Answer: 18900 nM

Question: And the CC50 (MT4 [9])?
Answer: 178000 nM

Question: Which EC50 [7] does the source give for `COc1ccc(C(=O)CSc2nc(Cc3ccccc3)c(C(C)C)c(=O)[nH]2)cc1` here?
Answer: 30 nM

Question: What about the EC50 [8] of the same compound?
Answer: 13400 nM

Question: What about the CC50 (MT4 [9]) of the same compound?
Answer: 203000 nM

Question: With `COc1ccc(/C=C/CSc2nc(C(C)c3c(F)cccc3F)c(C)c(=O)[nH]2)cc1` (configuration not stated) as the compound, how does the EC50 [10] read?
Answer: 2 nM

Question: With `CCc1c(C(C)c2c(F)cccc2F)nc(SC/C=C/c2ccc(OC)cc2)[nH]c1=O` (configuration not stated) as the compound, how does the EC50 [10] read?
Answer: 2 nM

Question: For `CCc1c(C(C)c2c(F)cccc2F)nc(SC/C=C/c2ccc([N+](=O)[O-])cc2)[nH]c1=O` (configuration not stated), which EC50 [10] is on record?
Answer: 4 nM

Question: Which results are given for `COc1ccc(CSc2nc(C(C)c3c(Cl)cccc3Cl)c(C)c(=O)[nH]2)cc1` (configuration not stated)?
Answer: EC50 [10]: 1 nM; EC50 [11]: 5720 nM

Question: With `COc1ccc(CSc2nc(C(C)c3c(F)cccc3F)c(C)c(=O)[nH]2)cc1` (configuration not stated) as the compound, how does the EC50 [10] read?
Answer: 2 nM

Question: Which EC50 [10] does the source give for `Cc1c(C(C)c2c(F)cccc2F)nc(SCc2ccc([N+](=O)[O-])cc2)[nH]c1=O` (configuration not stated) here?
Answer: 3 nM

Question: And the EC50 [11]?
Answer: 650 nM

Question: With `Cc1c(O)nc(SCC(C)C)nc1Cc1ccccc1` as the compound, how does the selectivity ratio [2] read?
Answer: 162

Question: And the EC50 [3]?
Answer: 800 nM

Question: With `CSCSc1nc(O)c(C)c(Cc2ccccc2)n1` as the compound, how does the EC50 [1] read?
Answer: 1200 nM

Question: With `Cc1cccc(Cc2nc(SC3CCCC3)nc(O)c2C)c1` as the compound, how does the selectivity ratio [2] read?
Answer: > 530

Question: What about the EC50 [3] of the same compound?
Answer: 600 nM

Question: Which EC50 [1] does the source give for `CSCSc1nc(O)c(C(C)C)c(Cc2ccccc2)n1` here?
Answer: 40 nM

Question: With `CCc1c(O)nc(SCSC)nc1Cc1ccccc1` as the compound, how does the EC50 [1] read?
Answer: 800 nM

Question: With `Cc1c(C(C)c2c(F)cccc2F)nc(SCc2ccc(C#N)cc2)[nH]c1=O` (configuration not stated) as the compound, how does the EC50 [10] read?
Answer: 7 nM

Question: Which EC50 [12] does the source give for `Cc1c(C(C)c2c(F)cccc2F)nc(NC(C)C)[nH]c1=O` (configuration not stated) here?
Answer: 20 nM

Question: What about the CC50 (MT4 [13]) of the same compound?
Answer: > 200000 nM

Question: Which CC50 (MT4 [14]) does the source give for `Cc1c(Cc2c(Cl)cccc2Cl)nc(SCc2cn(Cc3ccc(S(N)(=O)=O)cc3)nn2)[nH]c1=O` here?
Answer: 95500 nM

Question: Which results are given for `Cc1c(Cc2c(Cl)cccc2Cl)nc(SCC(=O)Nc2ccc(F)c(F)c2)[nH]c1=O`?
Answer: EC50 [7]: 690 nM; selectivity ratio [2]: > 387; CC50 (MT4 [9]): > 265000 nM

Question: For `Cc1c(Cc2c(Cl)cccc2Cl)nc(SCC(=O)Nc2ccc(Br)cc2)[nH]c1=O`, which EC50 [7] is on record?
Answer: 180 nM

Question: What about the selectivity ratio [2] of the same compound?
Answer: > 1330

Question: And the CC50 (MT4 [9])?
Answer: > 243000 nM

Question: For `Cc1c(Cc2c(Cl)cccc2Cl)nc(SCC(=O)Nc2ccc(Cl)cc2)[nH]c1=O`, which EC50 [7] is on record?
Answer: 320 nM

Question: And the selectivity ratio [2]?
Answer: > 836

Question: And the CC50 (MT4 [9])?
Answer: > 266000 nM

Question: With `Cc1c(Cc2c(Cl)cccc2Cl)nc(SCC(=O)Nc2ccc([N+](=O)[O-])cc2)[nH]c1=O` as the compound, how does the EC50 [7] read?
Answer: 990 nM

Question: And the selectivity ratio [2]?
Answer: 264

Question: And the CC50 (MT4 [9])?
Answer: 45800 nM

Question: For `CC(C)CCSc1nc(Cc2c(F)cccc2I)cc(=O)[nH]1`, which CC50 (C8166) is on record?
Answer: > 200000 nM

Question: And the CC50 at 72 h [4]?
Answer: > 200000 nM

Question: And the selectivity ratio [5]?
Answer: > 4000

Question: And the EC50 [6]?
Answer: 50 nM

Question: What does the source list for `CCC(C)Sc1nc(Cc2c(F)cccc2I)cc(=O)[nH]1` (configuration not stated)?
Answer: CC50 (C8166): > 200000 nM; CC50 at 72 h [4]: > 200000 nM; selectivity ratio [5]: > 4000; EC50 [6]: 50 nM

Question: Which results are given for `C#CCOC(=O)[C@H](C)NP(=O)(Oc1ccccc1)Oc1nc(N(C)C)nc(C(C)c2c(F)cccc2F)c1C` (some centres not stated)?
Answer: EC50 [15]: 500 nM; EC50 [16]: 3 nM

Question: Which results are given for `CCOC(=O)[C@H](C)NP(=O)(Oc1ccccc1)Oc1nc(N(C)C)nc(C(C)c2c(F)cccc2F)c1C` (some centres not stated)?
Answer: EC50 [15]: 1000 nM; EC50 [16]: 6 nM
